Measurements as given in publication PMC8838460, “Expression, Purification, and Comparative Inhibition of Helicobacter pylori Urease by Regio-Selectively Alkylated Benzimidazole 2-Thione Derivatives” (Molecules, 2022).
Like-named read-outs stand apart in the source and are kept apart here.

Columns and labels:
Rat [1] = settings: TOPKAT structural similar compounds, cited from earlier work
Rat [2] = settings: TOPKAT structural similar compounds; ref CPDB; cited from earlier work
Mouse = test system: Mouse; set-up: method as in earlier work; settings: TOPKAT structural similar compounds; ref CPDB; cited from earlier work
H. pylori Urease = H. pylori Urease (Helicobacter pylori, UniProt P69996); assay: Urease inhibition assay (indophenol method) on recombinant H. pylori urease; format: biochemical; settings: for Type of inhibition (in words): H. pylori urease; for Vmax: H. pylori urease with inhibitor
Description: (§1) Reaction mixtures comprising 25 μL of urease enzymes solution and 55 μL of sodium phosphate buffers containing 100 mM urea were incubated with 5 μL of tested compounds above (0.5 mM concentration) at 30 °C for 15 min in 96-well plates. Urease activity was determined by measuring the ammonia production using the indophenol method as described by Weatherburn. Briefly, 45 μL of each phenol reagent (1% w/v phenol and 0.005% w/v sodium nitroprussside) and 70 μL of alkali reagent (0.5% w/v NaOH and 0.1% active chloride NaOCl) were added to each well. The absorbance at 630 nm was measured after 50 min using a microplate reader (SPECTRO star Nano, Ortenberg, Germany). All reactions were performed in triplicate in a final volume of 200 μL. The results (change in absorbance per min) were processed by using MARS Data Analysis Version 2.41, software (SPECTRO star Nano, Ortenberg, Germany).
(§2) The assays were performed at pH 6.8. The percentage of inhibitions were calculated from the formula 100 − (ODtest well/ODcontrol) × 100. Thiourea was used as the standard inhibitor of Urease.
(§3) The concentrations of the test compounds that inhibited the hydrolysis of substrates by 50% (IC50) were determined by monitoring the effect of various concentrations of these compounds in the assays on the inhibition values. The IC50 values were then calculated using Graph Pad Prism 6 software.

fibroblast cells = assay: In vitro cytotoxicity, neutral red assay on fibroblast cells; format: cell-based; settings: for inhibition at 0.003 µM: Conc. 0.003 µM; for inhibition at 0.007 µM: Conc. 0.007 µM; for inhibition at 0.015 µM: Conc. 0.015 µM; for inhibition at 0.031 µM: Conc. 0.031 µM; for inhibition at 0.064 µM: Conc. 0.064 µM; for inhibition at 0.123 µM: Conc. 0.123 µM; for cytotoxicity (in words): in high concentrations
Description: The active compounds were selected and subjected to cytotoxicity evaluation using the neutral red assay. Cytotoxic assays were performed according to Borenfreund and Puerner.

J. bean Urease = target: T1, J. bean Urease (Canavalia ensiformis, UniProt P07374); assay: Urease inhibition assay (indophenol method) on commercial Jack bean urease; format: biochemical; settings: for Type of inhibition (in words): J. bean urease; for Vmax: J. bean urease with inhibitor
T1 construct: purchased
Description: as §1, §2, §3

T1 sequence (P07374 whole entry, looked up): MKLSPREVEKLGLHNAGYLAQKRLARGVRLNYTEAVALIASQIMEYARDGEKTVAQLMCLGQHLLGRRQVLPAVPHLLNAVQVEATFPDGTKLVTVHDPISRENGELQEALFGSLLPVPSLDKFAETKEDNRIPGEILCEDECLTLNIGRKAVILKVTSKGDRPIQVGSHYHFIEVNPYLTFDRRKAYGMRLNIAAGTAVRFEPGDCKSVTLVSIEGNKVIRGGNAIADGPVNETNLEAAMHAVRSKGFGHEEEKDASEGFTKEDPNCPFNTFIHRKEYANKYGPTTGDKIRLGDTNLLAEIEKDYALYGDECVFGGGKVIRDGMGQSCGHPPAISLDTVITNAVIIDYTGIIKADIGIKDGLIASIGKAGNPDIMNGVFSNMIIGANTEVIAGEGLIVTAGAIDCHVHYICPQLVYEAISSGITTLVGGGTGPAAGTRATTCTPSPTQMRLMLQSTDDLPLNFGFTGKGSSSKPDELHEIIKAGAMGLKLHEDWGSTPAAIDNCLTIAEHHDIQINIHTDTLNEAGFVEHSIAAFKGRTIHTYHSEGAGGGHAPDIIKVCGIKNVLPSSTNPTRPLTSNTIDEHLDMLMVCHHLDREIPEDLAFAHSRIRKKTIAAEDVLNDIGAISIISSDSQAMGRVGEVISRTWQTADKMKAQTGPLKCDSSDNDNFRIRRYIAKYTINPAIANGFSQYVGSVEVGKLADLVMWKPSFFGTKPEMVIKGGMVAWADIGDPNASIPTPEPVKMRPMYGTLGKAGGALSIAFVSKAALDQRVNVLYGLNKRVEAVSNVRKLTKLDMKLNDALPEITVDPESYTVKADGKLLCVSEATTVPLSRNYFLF
Chain of H. pylori Urease (P69996 whole entry): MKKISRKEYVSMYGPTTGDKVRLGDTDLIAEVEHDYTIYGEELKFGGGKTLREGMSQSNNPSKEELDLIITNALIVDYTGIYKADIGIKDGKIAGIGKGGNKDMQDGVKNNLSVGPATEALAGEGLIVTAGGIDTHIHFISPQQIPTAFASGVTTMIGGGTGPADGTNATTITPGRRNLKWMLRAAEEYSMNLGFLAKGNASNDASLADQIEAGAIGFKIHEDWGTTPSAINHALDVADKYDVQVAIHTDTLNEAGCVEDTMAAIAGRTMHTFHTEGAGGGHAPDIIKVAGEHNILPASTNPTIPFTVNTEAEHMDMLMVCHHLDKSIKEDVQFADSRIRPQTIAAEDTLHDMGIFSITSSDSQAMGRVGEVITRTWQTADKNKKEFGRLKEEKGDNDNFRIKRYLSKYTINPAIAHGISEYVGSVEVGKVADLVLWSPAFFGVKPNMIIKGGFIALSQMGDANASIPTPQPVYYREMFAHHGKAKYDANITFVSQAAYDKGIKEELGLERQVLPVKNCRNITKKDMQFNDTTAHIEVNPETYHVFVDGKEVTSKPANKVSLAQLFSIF
Chain of H. pylori Urease (P14916 whole entry, further chain): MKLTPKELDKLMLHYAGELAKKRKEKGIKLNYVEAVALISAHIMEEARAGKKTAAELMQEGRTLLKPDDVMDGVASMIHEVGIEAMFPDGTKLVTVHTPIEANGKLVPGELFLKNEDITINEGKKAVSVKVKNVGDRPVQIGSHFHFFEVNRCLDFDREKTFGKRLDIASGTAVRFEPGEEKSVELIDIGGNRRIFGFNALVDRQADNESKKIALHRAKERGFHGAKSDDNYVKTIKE

NC(=O)Nc1ccccc1
Actual Endpoint (-log C), Rat Oral LD50 (Rat [1]; ref IIFBA4 12;195;69): 1.833 -log C

CCOCSc1nc2ccccc2n1COCC
melting point: 108 °C

NC(=S)Nc1ccccc1 [1-PHENYL-2-THIOUREA]
Actual Endpoint (-log C), Rat Oral LD50 (Rat [1]; ref JMPCAS 4;109;61): 4.705 -log C

CC(=O)Nc1ccc(O)cc1 [Acetaminophen, reference compound]
Actual Endpoint (-log C), Carcinogenic Potency TD50 Rat (Rat [2]): 2.485 -log C

c1ccc2[nH]c(SCC3CO3)nc2c1 (stereo not drawn)
melting point: 211 °C

CCOC(CSc1nc2ccccc2[nH]1)OCC
melting point: 80 °C

CCOc1ccc(NC(C)=O)cc1 [Phenacetin, reference compound]
Actual Endpoint (-log C), Carcinogenic Potency TD50 Rat (Rat [2]): 2.156 -log C

Methylhydrazine s
Actual Endpoint (-log C), Carcinogenic Potency TD50 Mouse (Mouse): 3.785 -log C

O=c1ccc(=O)[nH][nH]1 [MALEIC HYDRAZIDE]
Actual Endpoint (-log C), Rat Oral LD50 (Rat [1]; ref WRPCA2 9;119;70): 1.47 -log C

Cc1ccc(NC(N)=O)cc1 [p-Tolylurea]
Actual Endpoint (-log C), Carcinogenic Potency TD50 Mouse (Mouse): 2.863 -log C

CC(O)CN (stereo not drawn) [1-AMINO-2-PROPANOL]
Actual Endpoint (-log C), Rat Oral LD50 (Rat [1]; ref JACTDZ 6(1);53;87): 1.554 -log C

Sc1nc2ccccc2[nH]1 [Compound 2, 1H-Benzimidazole-2(3H)-thione]
Type of inhibition (in words) (H. pylori Urease): non-competitive | Vmax (H. pylori Urease): 1.54 ± 0.057 µmol/min | inhibition at 0.009 µM (fibroblast cells; Fibroblast): 20% | inhibition at 0.003 µM (fibroblast cells; fibroblast cells): 40.4% | inhibition at 0.007 µM (fibroblast cells; fibroblast cells): 44% | inhibition at 0.015 µM (fibroblast cells; fibroblast cells): 49.4% | inhibition at 0.031 µM (fibroblast cells; fibroblast cells): 49.5% | inhibition at 0.064 µM (fibroblast cells; fibroblast cells): 80.6% | inhibition at 0.123 µM (fibroblast cells; fibroblast cells): 82.5% | cytotoxicity (in words) (fibroblast cells; fibroblast cells): not cytotoxic | IC50 (J. bean Urease): 260 ± 8 µM | Type of inhibition (in words) (J. bean Urease): non-competitive | Vmax (J. bean Urease): 1.53 ± 0.005 µmol/min

CC(C)(Oc1ccc(C2CC2(Cl)Cl)cc1)C(=O)O (stereo not drawn) [Ciprofibrate, reference compound]
Actual Endpoint (-log C), Carcinogenic Potency TD50 Mouse (Mouse): 4.669 -log C

OCCCSc1nc2ccccc2[nH]1
melting point: 119 °C

N#CCSc1nc2ccccc2n1CC#N
melting point: 161 to 163 °C

CC(N)=O [Acetamide]
Actual Endpoint (-log C), Carcinogenic Potency TD50 Mouse (Mouse): 1.293 -log C | Actual Endpoint (-log C), Carcinogenic Potency TD50 Rat (Rat [2]): 2.516 -log C

Oc1ccccc1O [Catechol]
Actual Endpoint (-log C), Carcinogenic Potency TD50 Mouse (Mouse): 2.654 -log C

CC(O)CSc1nc2ccccc2[nH]1 (stereo not drawn)
melting point: 250 °C

CCCCCCCCCCCSc1nc2ccccc2[nH]1
melting point: 104 °C

CNN [METHYLHYDRAZINE]
Actual Endpoint (-log C), Rat Oral LD50 (Rat [1]; ref XAWPA2 CWL): 3.158 -log C

Cc1cccc(NC(N)=O)c1 [m-TOLYLUREA]
Actual Endpoint (-log C), Rat Oral LD50 (Rat [1]; ref IIFBA4 12;195;69): 2.053 -log C

CCOc1ccccc1C(N)=O [o-Ethoxybenzamide]
Actual Endpoint (-log C), Carcinogenic Potency TD50 Mouse (Mouse): 2.508 -log C

CCCCSc1nc2ccccc2[nH]1
melting point: 145 °C

O=Nc1ccc(Nc2ccccc2)cc1 [p-Nitrosodiphenylamine]
Actual Endpoint (-log C), Carcinogenic Potency TD50 Rat (Rat [2]): 2.994 -log C

CCOCn1c(=S)[nH]c2ccccc21 [Compound 5, 1-(Ethoxymethyl)-1H-benzo[d]imidazole-2(3H)-thione]
Type of inhibition (in words) (H. pylori Urease): uncompetitive | Vmax (H. pylori Urease): 1.52 ± 0.024 µmol/min | inhibition at 0.003 µM (fibroblast cells; fibroblast cells): -28.8% | inhibition at 0.007 µM (fibroblast cells; fibroblast cells): -15.9% | inhibition at 0.009 µM (fibroblast cells; fibroblast cells, Conc. 0.009 µM, read-out: % Inhibition): -61.2% | inhibition at 0.015 µM (fibroblast cells; fibroblast cells): 4.6% | inhibition at 0.031 µM (fibroblast cells; fibroblast cells): 26.2% | inhibition at 0.064 µM (fibroblast cells; fibroblast cells): 52.1% | inhibition at 0.123 µM (fibroblast cells; fibroblast cells): 53.5% | cytotoxicity (in words) (fibroblast cells; fibroblast cells): not cytotoxic | IC50 (J. bean Urease): 290 ± 18 µM | Type of inhibition (in words) (J. bean Urease): non-competitive | Vmax (J. bean Urease): 1.60 ± 0.04 µmol/min

CC(=N)S [Thioacetamide]
Actual Endpoint (-log C), Carcinogenic Potency TD50 Rat (Rat [2]): 3.815 -log C

S=C1NCCC(COc2ccccc2)O1 (stereo not drawn) [TIFEMOXONE, reference compound]
Actual Endpoint (-log C), Rat Oral LD50 (Rat [1]; ref ATSUDG 1;229;78): 2.006 -log C

CC(=O)NN [Monoacetyl hydrazine]
Actual Endpoint (-log C), Carcinogenic Potency TD50 Mouse (Mouse): 3.876 -log C

Sc1nc2ccccc2s1 [2-Mercaptobenzothiazole]
Actual Endpoint (-log C), Carcinogenic Potency TD50 Rat (Rat [2]): 2.687 -log C
